Here are results for 26 compounds from patent US9549932B2, “2-(morpholin-4-yl)-1,7-naphthyridines” (BAYER PHARMA AKTIENGESELLSCHAFT, priority 2014, dated 2017).

This test deals with full-length human ATR protein (Homo sapiens (Human), UniProt Q13535). The experiment in a line: Binding assay ATR (TR-FRET tracer displacement). The conditions noted are these: TR-FRET. An excerpt:
To determine of binding activity of the test compounds, full-length human ATR protein was expressed and purified together with ATRIP as described above. Furthermore, a fluorescently labelled compound (either tracer A or B as described above) was used as a tracer molecule. Detection of the binding event of the tracer was achieved by time-resolved fluorescence energy transfer (TR-FRET). We used an anti-GST-Terbium antibody (CisBio) that binds to the GST-tag at the N-terminus of ATR-kinase. […] Displacement of the fluorescent tracer by a test compound leads to a reduction of the TR-FRET-signal.
For the assay 50 nl of a 100-fold concentrated solution of the test compound in DMSO was pipetted into a black low volume 384well microtiter plate (MTP, Greiner Bio-One, Frickenhausen, Germany). […] The ATR-working solution was incubated for 30 min at 22° C. prior to dispensing to pre-form the complex of antiGST-Tb+GST-ATR+ATRIP. Then, 3 μl of the ATR-working solution were added to the test compound and the mixture was incubated for 10 min at 22° C. to allow pre-binding of the test compounds to ATR/ATRIP. Then, 2 μl of a 100 nM solution of either tracer A or B in assay buffer were added to the ATR-working solution. The resulting mixture was incubated for 30 min at 22° C. […] The dilution series were prepared separately before the assay on the level of the 100 fold concentrated solutions in DMSO by serial 1:3.4 dilutions in duplicate values for each concentration. IC50 values were calculated by a 4 parameter fit using standard software (GraphPad prism or equivalent).
A general note: Time-resolved FRET reads energy transfer from a long-lived donor to a nearby acceptor.

Where [1] appears, read: tracer A, read-out: ATR binding (tracer A) IC50.
Setting [2] is: tracer B, read-out: ATR binding (tracer B) IC50.

Structures can show the parent of a compound that is named as a salt. Where two headings read alike, the source gives them in different places.

Chain of full-length human ATR protein (Q13535 other isoform, or with tags, fused parts or gaps): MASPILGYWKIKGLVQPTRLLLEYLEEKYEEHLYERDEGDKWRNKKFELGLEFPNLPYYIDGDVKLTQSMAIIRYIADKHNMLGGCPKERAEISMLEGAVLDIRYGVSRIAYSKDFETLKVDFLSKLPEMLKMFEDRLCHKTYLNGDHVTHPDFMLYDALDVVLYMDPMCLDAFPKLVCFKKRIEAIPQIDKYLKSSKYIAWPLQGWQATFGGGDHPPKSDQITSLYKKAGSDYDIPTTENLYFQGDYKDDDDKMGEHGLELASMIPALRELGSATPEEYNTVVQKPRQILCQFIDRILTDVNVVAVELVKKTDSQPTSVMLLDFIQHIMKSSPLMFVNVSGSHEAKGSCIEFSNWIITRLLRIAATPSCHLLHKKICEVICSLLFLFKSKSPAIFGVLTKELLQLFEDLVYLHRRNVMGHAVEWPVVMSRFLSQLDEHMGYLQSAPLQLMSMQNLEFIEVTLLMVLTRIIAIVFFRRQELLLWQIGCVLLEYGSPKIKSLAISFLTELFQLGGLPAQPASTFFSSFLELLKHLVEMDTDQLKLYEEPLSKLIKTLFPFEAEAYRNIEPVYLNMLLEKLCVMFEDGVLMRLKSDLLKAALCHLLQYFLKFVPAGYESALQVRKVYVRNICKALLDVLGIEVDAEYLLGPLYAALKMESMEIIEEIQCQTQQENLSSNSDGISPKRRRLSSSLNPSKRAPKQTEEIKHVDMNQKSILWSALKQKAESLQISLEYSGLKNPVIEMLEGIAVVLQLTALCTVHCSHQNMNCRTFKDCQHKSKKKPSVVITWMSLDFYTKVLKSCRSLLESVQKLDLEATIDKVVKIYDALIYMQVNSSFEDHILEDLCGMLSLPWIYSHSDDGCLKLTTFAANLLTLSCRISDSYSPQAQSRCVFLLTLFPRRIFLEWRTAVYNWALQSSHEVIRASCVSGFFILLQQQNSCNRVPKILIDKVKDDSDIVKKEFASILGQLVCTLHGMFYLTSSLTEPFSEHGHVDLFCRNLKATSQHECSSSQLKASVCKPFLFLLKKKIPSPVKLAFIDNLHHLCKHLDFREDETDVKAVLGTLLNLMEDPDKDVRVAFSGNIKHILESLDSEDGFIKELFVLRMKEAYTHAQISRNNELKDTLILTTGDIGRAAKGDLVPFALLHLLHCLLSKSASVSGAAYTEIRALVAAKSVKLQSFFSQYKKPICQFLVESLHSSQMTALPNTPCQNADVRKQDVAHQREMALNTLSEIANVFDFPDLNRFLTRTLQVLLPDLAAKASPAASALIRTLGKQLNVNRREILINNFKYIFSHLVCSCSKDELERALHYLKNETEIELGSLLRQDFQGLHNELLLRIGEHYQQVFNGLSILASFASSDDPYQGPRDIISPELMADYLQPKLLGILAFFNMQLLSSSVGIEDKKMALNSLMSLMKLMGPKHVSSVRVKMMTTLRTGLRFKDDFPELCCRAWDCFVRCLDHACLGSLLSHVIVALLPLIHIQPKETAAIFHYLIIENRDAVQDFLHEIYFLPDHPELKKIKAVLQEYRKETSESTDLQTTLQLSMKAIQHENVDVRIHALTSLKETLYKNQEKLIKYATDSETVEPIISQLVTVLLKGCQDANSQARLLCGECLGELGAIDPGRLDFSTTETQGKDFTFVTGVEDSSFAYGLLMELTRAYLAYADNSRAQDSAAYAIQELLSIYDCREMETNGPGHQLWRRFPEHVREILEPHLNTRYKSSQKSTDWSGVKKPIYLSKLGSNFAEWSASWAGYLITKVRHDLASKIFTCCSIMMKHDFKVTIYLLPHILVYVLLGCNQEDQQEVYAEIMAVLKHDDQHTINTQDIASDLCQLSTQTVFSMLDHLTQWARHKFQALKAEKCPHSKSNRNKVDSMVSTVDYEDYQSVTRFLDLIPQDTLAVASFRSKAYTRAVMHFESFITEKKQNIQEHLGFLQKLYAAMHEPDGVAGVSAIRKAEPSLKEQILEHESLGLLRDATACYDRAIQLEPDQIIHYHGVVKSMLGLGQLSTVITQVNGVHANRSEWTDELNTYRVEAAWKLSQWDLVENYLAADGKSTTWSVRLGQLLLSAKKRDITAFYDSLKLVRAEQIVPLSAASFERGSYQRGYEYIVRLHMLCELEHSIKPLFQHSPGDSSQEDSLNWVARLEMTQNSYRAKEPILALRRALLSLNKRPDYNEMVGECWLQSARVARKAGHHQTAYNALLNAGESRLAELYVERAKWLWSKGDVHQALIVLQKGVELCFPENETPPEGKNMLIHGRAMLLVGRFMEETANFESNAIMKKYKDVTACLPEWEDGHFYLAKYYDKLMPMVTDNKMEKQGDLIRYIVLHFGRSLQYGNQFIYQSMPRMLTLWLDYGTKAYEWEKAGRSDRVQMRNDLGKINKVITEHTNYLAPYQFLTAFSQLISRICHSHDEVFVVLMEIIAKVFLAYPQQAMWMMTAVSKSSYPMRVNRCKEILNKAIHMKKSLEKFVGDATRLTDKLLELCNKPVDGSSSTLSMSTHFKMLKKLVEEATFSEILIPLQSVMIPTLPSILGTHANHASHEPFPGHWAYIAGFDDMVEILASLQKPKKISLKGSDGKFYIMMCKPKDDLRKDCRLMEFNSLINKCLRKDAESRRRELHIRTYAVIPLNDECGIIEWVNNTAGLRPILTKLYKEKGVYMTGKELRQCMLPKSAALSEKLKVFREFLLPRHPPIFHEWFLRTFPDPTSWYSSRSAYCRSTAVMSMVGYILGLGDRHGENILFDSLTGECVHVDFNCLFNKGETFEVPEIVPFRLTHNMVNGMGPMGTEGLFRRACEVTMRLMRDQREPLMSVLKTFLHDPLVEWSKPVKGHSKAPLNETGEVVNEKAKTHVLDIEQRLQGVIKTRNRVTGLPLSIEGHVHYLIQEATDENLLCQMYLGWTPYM
Chain of full-length human ATR protein (Q8WXE1 other isoform, or with tags, fused parts or gaps partner): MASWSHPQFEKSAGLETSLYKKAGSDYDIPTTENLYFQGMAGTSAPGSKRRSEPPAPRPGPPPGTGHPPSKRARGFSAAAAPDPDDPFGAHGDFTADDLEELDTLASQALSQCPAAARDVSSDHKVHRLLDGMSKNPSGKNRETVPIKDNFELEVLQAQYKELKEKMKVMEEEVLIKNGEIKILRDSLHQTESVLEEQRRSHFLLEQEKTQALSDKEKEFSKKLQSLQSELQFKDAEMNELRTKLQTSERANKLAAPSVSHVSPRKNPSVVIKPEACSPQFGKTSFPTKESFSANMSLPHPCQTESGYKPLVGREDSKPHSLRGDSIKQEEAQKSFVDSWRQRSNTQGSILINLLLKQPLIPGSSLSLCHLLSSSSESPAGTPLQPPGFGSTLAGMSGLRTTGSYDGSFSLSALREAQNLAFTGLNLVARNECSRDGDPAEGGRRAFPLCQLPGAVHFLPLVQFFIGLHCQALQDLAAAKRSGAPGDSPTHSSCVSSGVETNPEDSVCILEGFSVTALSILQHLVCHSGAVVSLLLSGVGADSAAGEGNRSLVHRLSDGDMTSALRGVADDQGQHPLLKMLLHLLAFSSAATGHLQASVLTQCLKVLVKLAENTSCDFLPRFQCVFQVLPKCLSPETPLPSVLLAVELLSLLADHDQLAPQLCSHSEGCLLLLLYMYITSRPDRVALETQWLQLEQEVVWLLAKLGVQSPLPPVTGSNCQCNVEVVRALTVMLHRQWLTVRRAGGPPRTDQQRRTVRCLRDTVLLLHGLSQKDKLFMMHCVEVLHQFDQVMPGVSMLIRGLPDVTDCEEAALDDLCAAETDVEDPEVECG

The IC50 is the concentration needed to halve the response being measured. For the compound `C[C@@H]1CN[C@@H](C)CN1c1cc(N2CCOCC2)nc2c(-c3ccn[nH]3)nccc12` (relative stereo) [Example 178, 4-[(trans)-2,5-dimethylpiperazin-1-yl]-2-(morpholin-4-yl)-8-(1H-pyrazol-5-yl)-1,7-naphthyridine], under setting [1], the half-inhibitory concentration (IC50) amounted to 377 nM.

`C[C@@H]1COCCN1c1cc(N=S(C)(=O)c2ccccc2F)c2ccnc(-c3ccn[nH]3)c2n1` (single isomer, unassigned) [Example 140]: under setting [1], the IC50 was 76.5 nM.

`C[C@@H]1COCCN1c1cc(N=S(C)(=O)c2ccccc2F)c2ccnc(-c3ccn[nH]3)c2n1` (single isomer, unassigned) [Example 141]: the IC50 under setting [1] came to 386 nM.

Take `C[C@@H]1COCCN1c1cc([C@H]2C[C@@H]2C)c2ccnc(-c3ccn[nH]3)c2n1` (stereo in doubt) [Example 171, 4-[(trans)-2-methylcyclopropyl]-2-[(3R)-3-methylmorpholin-4-yl]-8-(1H-pyrazol-5-yl)-1,7-naphthyridine]: the IC50 under setting [1] was found to be 94.7 nM.

Regarding `NC(=O)[C@H]1CCCN1c1cc(N2CCOCC2)nc2c(-c3ccn[nH]3)nccc12` (stereo in doubt) [Example 428, 1-[2-(morpholin-4-yl)-8-(1H-pyrazol-5-yl)-1,7-naphthyridin-4-yl]-prolinamide], the IC50 under setting [1] was determined as 69.8 nM.

On to `OC[C@H]1CCCN(c2cc(N3CCOCC3)nc3c(-c4ccn[nH]4)nccc23)C1` (stereo in doubt) [Example 437, {1-[2-(morpholin-4-yl)-8-(1H-pyrazol-5-yl)-1,7-naphthyridin-4-yl]piperidin-3-yl}methanol], for which the IC50 under setting [1] was determined as 118 nM.

Take `CCOC(=O)N=S(C)(=O)c1ccc(-c2cc(N3CCOCC3)nc3c(-c4ccn[nH]4)nccc23)cc1` (centres unmarked) [Example 1]: the IC50 was found to be 36.8 nM under setting [1] and 23.9 nM under setting [2].

For `CS(=N)(=O)c1ccc(-c2cc(N3CCOCC3)nc3c(-c4ccn[nH]4)nccc23)cc1` (centres unmarked) [Example 2], the IC50 by setting is: under setting [1], 95.2 nM; under setting [2], 38.3 nM.

As for `CS(=O)(=O)c1ccc(-c2cc(N3CCOCC3)nc3c(-c4ccn[nH]4)nccc23)cn1` [Example 3, 4-[6-(methylsulfonyl)pyridin-3-yl]-2-(morpholin-4-yl)-8-(1H-pyrazol-5-yl)-1,7-naphthyridine], the IC50 came to 56.9 nM under setting [1] and 38.7 nM under setting [2].

For the compound `C1=C(c2cc(N3CCOCC3)nc3c(-c4cc[nH]n4)nccc23)CCOC1` [Example 4, 4-(3,6-dihydro-2H-pyran-4-yl)-2-(morpholin-4-yl)-8-(1H-pyrazol-3-yl)-[1,7]naphthyridine], the IC50 was determined as 61.7 nM under setting [1] and 43.5 nM under setting [2].

For `CN=S(C)(=O)c1ccc(-c2cc(N3CCOCC3)nc3c(-c4ccn[nH]4)nccc23)cc1` (centres unmarked) [Example 5, 4-[4-(N,S-dimethylsulfonimidoyl)phenyl]-2-[morpholin-4-yl]-8-(1H-pyrazol-5-yl)-1,7-naphthyridine], the half-inhibitory concentration (IC50) worked out at 64.3 nM under setting [1] and 34.1 nM under setting [2].

Take `Cc1cc(S(C)(=O)=O)ncc1-c1cc(N2CCOCC2)nc2c(-c3ccn[nH]3)nccc12` [Example 6, 4-[4-methyl-6-(methylsulfonyl)pyridin-3-yl]-2-(morpholin-4-yl)-8-(1H-pyrazol-5-yl)-1,7-naphthyridine]: the IC50 under setting [1] came out at 68.6 nM.

In the case of `CS(=O)(=O)c1ccc(-c2cc(N3CCOCC3)nc3c(-c4cc[nH]n4)nccc23)cc1` [Example 7, 4-(4-methanesulphonylphenyl)-2-(morpholin-4-yl)-8-(1H-pyrazol-3-yl)-[1,7]naphthyridine], the IC50 amounted to 58.7 nM under setting [1] and 26.5 nM under setting [2].

As for `CS(=O)(=O)c1ccccc1-c1cc(N2CCOCC2)nc2c(-c3cc[nH]n3)nccc12` [Example 8, 4-(2-methanesulphonylphenyl)-2-(morpholin-4-yl)-8-(1H-pyrazol-3-yl)-[1,7]naphthyridine hydrochloride], the IC50 stood at 118 nM under setting [1] and 69.2 nM under setting [2].

For the compound `COP(=O)(OC)c1ccc(-c2cc(N3CCOCC3)nc3c(-c4ccn[nH]4)nccc23)cc1` [Example 9, Dimethyl {4-[2-(morpholin-4-yl)-8-(1H-pyrazol-5-yl)-1,7-naphthyridin-4-yl]phenyl}phosphonate], the IC50 by setting is: under setting [1], 120 nM; under setting [2], 127 nM.

Regarding `C=C(C)c1cc(N2CCOCC2)nc2c(-c3cc[nH]n3)nccc12` [Example 10, 4-isopropenyl-2-(morpholin-4-yl)-8-(1H-pyrazol-3-yl)-[1,7]naphthyridine], the IC50 under setting [1] stood at 126 nM and the IC50 under setting [2] was 43.9 nM.

Consider `c1ccc(-c2cc(N3CCOCC3)nc3c(-c4cc[nH]n4)nccc23)cc1` [Example 11, 2-(morpholin-4-yl)-4-phenyl-8-(1H-pyrazol-3-yl)-[1,7]naphthyridine], for which the IC50 under setting [1] was determined as 135 nM and the IC50 under setting [2] was found to be 86.8 nM.

For the compound `CCS(=N)(=O)c1ccc(-c2cc(N3CCOCC3)nc3c(-c4ccn[nH]4)nccc23)cc1` (centres unmarked) [Example 12, 4-[4-(S-ethylsulfonimidoyl)phenyl]-2-(morpholin-4-yl)-8-(1H-pyrazol-5-yl)-1,7-naphthyridine], the IC50 reads like this: under setting [1], 135 nM; under setting [2], 47.2 nM.

Turning to `CCOC(=O)N=S(C)(=O)c1cccc(-c2cc(N3CCOCC3)nc3c(-c4ccn[nH]4)nccc23)c1` (centres unmarked) [Example 13], the IC50 runs as follows: under setting [1], 141 nM; under setting [2], 104 nM.

In the case of `CN1CC=C(c2cc(N3CCOCC3)nc3c(-c4ccn[nH]4)nccc23)CC1` [Example 14, 4-(1-methyl-1,2,3,6-tetrahydropyridin-4-yl)-2-(morpholin-4-yl)-8-(1H-pyrazol-5-yl)-1,7-naphthyridine], the IC50 under setting [1] was 162 nM and the half-maximal inhibitory concentration (IC50) under setting [2] was 79.9 nM.

`CS(=O)(=O)c1cccc(-c2cc(N3CCOCC3)nc3c(-c4cc[nH]n4)nccc23)c1` [Example 15, 4-(3-methanesulphonylphenyl)-2-(morpholin-4-yl)-8-(1H-pyrazol-3-yl)-[1,7]naphthyridine]: the IC50 reads like this: under setting [1], 163 nM; under setting [2], 174 nM.

Consider `Cc1cc(-c2cc(N3CCOCC3)nc3c(-c4ccn[nH]4)nccc23)cnc1S(C)(=O)=O` [Example 16, 4-[5-methyl-6-(methylsulfonyl)pyridin-3-yl]-2-(morpholin-4-yl)-8-(1H-pyrazol-5-yl)-1,7-naphthyridine], for which the 50% inhibitory concentration (IC50) under setting [1] worked out at 173 nM.

Regarding `C1=C(c2cc(N3CCOCC3)nc3c(-c4ccn[nH]4)nccc23)CCNC1` [Example 17, 2-(morpholin-4-yl)-8-(1H-pyrazol-5-yl)-4-(1,2,3,6-tetrahydropyridin-4-yl)-1,7-naphthyridine], the IC50 came out at 185 nM under setting [1] and 117 nM under setting [2].

As for `c1cc2c(C3CC3)cc(N3CCOCC3)nc2c(-c2cc[nH]n2)n1` [Example 18, 4-cyclopropyl-2-(morpholin-4-yl)-8-(1H-pyrazol-3-yl)-[1,7]naphthyridine], the IC50 reads like this: under setting [1], 228 nM; under setting [2], 75.1 nM.

Consider `CS(=N)(=O)c1cccc(-c2cc(N3CCOCC3)nc3c(-c4ccn[nH]4)nccc23)c1` (centres unmarked) [Example 19], for which the IC50 was 293 nM under setting [1] and 181 nM under setting [2].

Consider `Cc1cc(N2CCOCC2)nc2c(-c3cc[nH]n3)nccc12` [Example 20, 4-methyl-2-(morpholin-4-yl)-8-(1H-pyrazol-3-yl)-[1,7]naphthyridine hydrochloride], for which the IC50 is, setting by setting: under setting [1], 816 nM; under setting [2], 320 nM.
